In US20250381165A1, “Method of Use for Benzofuran Compounds” (Tampa Bay Research Institute, Inc., priority 2024, published 2025):

Test system: SIINFEKL specific CD8+ T cells
Assay: Immunization with BzFβ/SIINFEKL treated DC2.4 cells
Format: in vivo, C57BL/6crl mice
Settings: mice immunized sc with 1.2×10^6 DC2.4 treated with 50 μg/mL BzFβ then 1 μg/mL SIINFEKL; prime and boost
Experimental: DC2.4 cells that had been matured by an overnight treatment with 20 ng/mL murine IFNγ (He, et al., Interferon gamma stimulates cellular maturation of dendritic cell line DC2.4 leading to induction of efficient cytotoxic T cell responses and antitumor immunity. Cell Mol Immunol. 2007; 4(2):105-11) were treated with 30 μg/mL mitomycin C to block replication and were then pulsed for 1 h with 1 μg/mL SIINFEKL peptide (Group 2), or with 50 μg/mL BzFβ for 1 h and then with 1 μg/mL SIINFEKL peptide for 1 h (Group 3).
Female C57BL/6crl mice were separated into 3 groups with 6 mice per group. The mice in Group 1 served as the naïve, no treatment group, Group 2 treated with by subcutaneous injection of 1.2×10^6 DC2.4 cells primed with IFNγ, mitomycin C and SIINFEKL, and Group 3 treated by subcutaneous injection of 1.2×10^6 DC2.4 cells primed with BzFβ and SIINFEKL as outlined above. […] Fourteen days later, the number of MHC class I/SIINFEKL tetramer positive CD8+ cells in the peripheral blood and spleen were determined.
On day 21 (14 days after the last immunization) blood was collected from the retro-orbital plexus. […] The number of CD19 negative^−/CD8 positive/SIINFEKL tetramer positive cells was determined by flow cytometric analysis following collection of positive events detected in the lymphocyte gate. […]

## O=C(O)/C=C/c1ccc2occc2c1 [BzFβ, (2E)-3-(1-benzofuran-5-yl)prop-2-enoic acid]
  SIINFEKL-specific CD8+ T cell response: enhanced SIINFEKL-specific CD8+ T cell response
